Source: paper PMC5811606, “Characterization of ^111In-labeled Glucose-Dependent Insulinotropic Polypeptide as a Radiotracer for Neuroendocrine Tumors” (Scientific Reports, 2018)
Entries after “also recorded” stand apart in the source; their conditions may differ.

Experiments:
[1] = test system: subcutaneous BHK-GIPR tumors; assay: Biodistribution study, BHK-GIPR tumor mice; format: in vivo, BALB/c nude mice; conditions: biodistribution studies in BALB/c nude mice, i.v.
Procedure: All animal experiments were approved by the Animal Welfare Body of the Radboud University, Nijmegen, The Netherlands and carried out in accordance with their guidelines. Six to eight weeks old, female BALB/c nude mice and C3H mice were purchased from Janvier labs (Le Genest Saint Isle, France). For all in vivo experiments, 6-8 weeks old female BALB/c nude mice were injected subcutaneously in the right shoulder with 0.2 ml of a 2.5 × 10^7 cells/ml suspension of BHK-GIPR transfected cells or with 0.2 ml of a 2.5 × 10^7 cells/ml suspension of NES2Y cells mixed with matrigel (2:1) in the right shoulder. When the tumor reached a diameter of 2-5 mm, mice were randomly divided in groups.
BALB/c nude mice bearing BHK-GIPR transfected tumors were injected intravenously with approximately 3 MBq (peptide dose 0.2 µg = 0.04 nmol) of [Lys^37(^111In-DTPA)]N-acetyl-GIP1-42 via the tail vein. At various time points after injection (1, 4 and 24 hours), mice were euthanized by CO2/O2 suffocation and blood, tumor and other relevant tissues were dissected, weighed and measured in a well type gamma counter. The percentage injected dose per gram (%ID/g) was calculated for each tissue. To determine whether the GIP1-42 uptake was GIPR mediated, 25 µg of unlabeled GIP1-42 was co-injected in a separate group (n = 5) and mice were euthanized four hours post-injection. BALB/c nude mice bearing NES2Y tumors (n = 5) were injected intravenously with approximately 3 MBq (peptide dose 0.2 µg = 0.04 nmol) of [Lys^37(^111In-DTPA)]N-acetyl-GIP1-42 via the tail vein. One hour after injection, mice were euthanized by CO2/O2 suffocation and blood, tumor and other relevant tissues were dissected, weighed and measured in a well type gamma counter. The percentage injected dose per gram (%ID/g) was determined for each tissue. To determine whether the GIP1-42 uptake was GIPR mediated, 25 µg of unlabeled GIP1-42 was co-injected in a separate group (n = 2) and mice were euthanized one hours post-injection.

[2] = Serum stability analysis in human serum; format: in vitro ADME; conditions: human serum (1:10), 37 °C
Procedure: [Lys^37(DTPA)]N-acetyl-GIP1-42 (MW = 5422 g/mol) and GIP1-42 (MW = 5046.7 g/mol) were purchased from Peptide Specialty Laboratories (PSL GmbH, Heidelberg, Germany). DTPA was conjugated to the ε-amino group of the Lysine (K37) and the N-terminal tyrosine was acetylated to reduce its susceptibility to […] (Fig. 1). [Lys^37(DTPA)]GIP1-42 was dissolved in 0.5 M MES (2-(N-morpholino)ethanesulfonic acid) buffer, pH 5.5 and stored at 4 °C until use. […] Radiochemical purity of [Lys^37(^111In-DTPA)]N-acetyl-GIP1-42 was determined by instant thin-layer chromatography (ITLC) (ITLC-SG, Agilent Technologies, Lake Forest, CA, USA), using 0.1 M EDTA in 0.1 M NH4Ac (Sigma Aldrich), pH 5.5 as a mobile agent and by reversed-phase high performance liquid chromatography (RP-HPLC) using an Eclipse XDB C18 column (Agilent Technologies). […]
For the serum stability analysis, [Lys^37(DTPA)]N-acetyl-GIP1-42 was labeled with [^111In]Cl3 at a specific activity of 27 GBq/µmol. Radiochemical purity of [Lys^37(^111In-DTPA)]N-acetyl-GIP1-42 directly after labeling was determined by ITLC-SG (Agilent Technologies) and RP-HPLC as described above. […] This mixture was centrifuged and after dilution, the radiochemical purity of the compound in the supernatant was analyzed using ITLC and RP-HPLC as described above.

In the case of CC[C@H](C)[C@H](NC(=O)[C@H](CO)NC(=O)[C@H](Cc1ccc(O)cc1)NC(=O)[C@H](CC(=O)O)NC(=O)[C@H](CO)NC(=O)[C@@H](NC(=O)[C@H](Cc1ccccc1)NC(=O)[C@@H](NC(=O)CNC(=O)[C@H](CCC(=O)O)NC(=O)[C@H](C)NC(=O)[C@H](Cc1ccc(O)cc1)NC(C)=O)[C@@H](C)O)[C@@H](C)CC)C(=O)N[C@@H](C)C(=O)N[C@@H](CCSC)C(=O)N[C@@H](CC(=O)O)C(=O)N[C@@H](CCCCN)C(=O)N[C@H](C(=O)N[C@@H](Cc1c[nH]cn1)C(=O)N[C@@H](CCC(N)=O)C(=O)N[C@@H](CCC(N)=O)C(=O)N[C@@H](CC(=O)O)C(=O)N[C@@H](Cc1ccccc1)C(=O)N[C@H](C(=O)N[C@@H](CC(N)=O)C(=O)N[C@@H](Cc1c[nH]c2ccccc12)C(=O)N[C@@H](CC(C)C)C(=O)N[C@@H](CC(C)C)C(=O)N[C@@H](C)C(=O)N[C@@H](CCC(N)=O)C(=O)N[C@@H](CCCCN)C(=O)NCC(=O)N[C@@H](CCCCN)C(=O)N[C@@H](CCCCN)C(=O)N[C@@H](CC(N)=O)C(=O)N[C@@H](CC(=O)O)C(=O)N[C@@H](Cc1c[nH]c2ccccc12)C(=O)N[C@@H](CCCCNC(=O)CN(CCN(CCN(CC(=O)O)CC(=O)O)CC(=O)O)CC(=O)O)C(=O)N[C@@H](Cc1c[nH]cn1)C(=O)N[C@@H](CC(N)=O)C(=O)N[C@H](C(=O)N[C@H](C(=O)N[C@@H](CCC(N)=O)C(=O)O)[C@@H](C)O)[C@@H](C)CC)C(C)C)[C@@H](C)CC [[Lys^37(^111In-DTPA)]N-acetyl-GIP1-42, metal not drawn], the blood clearance [1] is reported as “cleared from the blood very rapidly”, the remaining at 24 h ([2]; 24 hours, acetonitrile precipitation, RP-HPLC, read-out: activity found as intact radiolabeled peptide) is reported as 73% and the “stability in human serum” value ([2]; up to 4 hours, ITLC and RP-HPLC) is reported as “remained intact; also recorded: remained stable”.
